Test results as given in patent publication EP4603105A1, “PHARMACEUTICAL COMPOSITION CONTAINING CYCLIC COMPOUND HAVING SELECTIVE KRAS INHIBITORY EFFECT AGAINST HRAS AND NRAS” (CHUGAI SEIYAKU KABUSHIKI KAISHA, priority 2022, dated 2024).
Where a SMILES comes first, the peptide text is derived from it. Bridges are numbered along the chain shown (N, C = ends). [ ]: non-standard residue; d: D form. The star is where a group is joined. hPhe(3,5-F2-4-CF3) = N[C@@H](CCc1cc(F)c(C(F)(F)F)c(F)c1)C(=O)O; hPhe(3-Cl-4-CF3) = N[C@@H](CCc1ccc(C(F)(F)F)c(Cl)c1)C(=O)O; NPrPhe(4-CF3) = CCCN[C@@H](Cc1ccc(C(F)(F)F)cc1)C(=O)O; NEtPhe(4-Me) = CCN[C@@H](Cc1ccc(C)cc1)C(=O)O; NMeGly(cPent) = CN[C@H](C(=O)O)C1CCCC1; Ac4c(3,3-F2) = NC1(C(=O)O)CC(F)(F)C1; NEtPhe = CCN[C@@H](Cc1ccccc1)C(=O)O; Piperidide(4-Me) = CC1CCN(*)CC1; NMeD = CN[C@@H](CC(=O)O)C(=O)O; NMeL = CN[C@@H](CC(C)C)C(=O)O; Iva = CC[C@](C)(N)C(=O)O; Morpholide = C1CN(*)CCO1; NMeA = CN[C@@H](C)C(=O)O; Ac5c = NC1(C(=O)O)CCCC1; Aze = O=C(O)[C@@H]1CCN1; Sar = CNCC(=O)O

Columns and labels:
[1] = target: GDP-bound NRAS wild-type protein (Homo sapiens, UniProt P01111); experiment: Binding to NRAS by surface plasmon resonance (SPR), KD and KD ratio to KRAS
In short: (§1)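 Biotinylated GDP-bound RAS was captured at about 100–300 RU. Running buffer: HBS pH 7.4, 10 mM MgCl2, 10 µM GDP, 1 mM DTT, 0.01% Tween 20, 4% DMSO.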

HRAS wild-type protein = HRAS wild-type protein (Homo sapiens, UniProt P01112); experiment: Binding to HRAS by surface plasmon resonance (SPR), KD and KD ratio to KRAS
In short: as §1

[2] = system: human lung cancer strain NCI-H441; assay type: cell-based
In short: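 Step one: dispense the test compound in serial DMSO dilutions. Step three: add the reagent and measure […].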

[3] = ratio of the KD value with respect to GDP-bound NRAS wild-type protein to the KD value with respect to KRAS
[4] = ratio of the KD value with respect to HRAS wild-type protein to the KD value with respect to KRAS
[5] = ratio of KD for GDP-bound NRAS wild-type protein to KD for KRAS
[6] = ratio of KD for HRAS wild-type protein to KD for KRAS
[7] = ratio of KD value for GDP-bound NRAS wild-type protein to KD value for KRAS (SPR)
[8] = ratio of KD value for HRAS wild-type protein to KD value for KRAS (SPR)

Chain of HRAS wild-type protein (P01112 whole entry): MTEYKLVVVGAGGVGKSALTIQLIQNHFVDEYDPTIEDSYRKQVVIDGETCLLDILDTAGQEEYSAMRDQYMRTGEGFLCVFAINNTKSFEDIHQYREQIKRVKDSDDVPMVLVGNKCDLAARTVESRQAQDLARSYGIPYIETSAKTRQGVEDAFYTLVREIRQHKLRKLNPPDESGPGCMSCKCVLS
Chain of GDP-bound NRAS wild-type protein (P01111 whole entry): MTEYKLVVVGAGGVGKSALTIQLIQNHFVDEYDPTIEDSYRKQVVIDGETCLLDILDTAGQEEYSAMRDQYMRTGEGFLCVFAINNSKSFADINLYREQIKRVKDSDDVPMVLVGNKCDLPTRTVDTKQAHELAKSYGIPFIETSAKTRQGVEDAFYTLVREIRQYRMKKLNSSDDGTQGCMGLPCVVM

Compound | IC50 [2] [nM] | NRAS /KRAS [1, 3] | HRAS /KRAS (HRAS wild-type protein; [4]) | NRAS /KRAS [1, 5] | HRAS /KRAS (HRAS wild-type protein; [6]) | NRAS /KRAS [1, 7] | HRAS /KRAS (HRAS wild-type protein; [8])
CCCN1C(=O)CN(C)C(=O)CN(C)C(=O)[C@H]([C@@H](C)CC)NC(=O)[C@H](CC(C)C)N(C)C(=O)C[C@@H](C(=O)N2CCC(C)CC2)N(C)C(=O)[C@H](C2CCCC2)N(C)C(=O)C2(CCCC2)NC(=O)[C@@H]2CCCN2C(=O)[C@H](CCc2ccc(C(F)(F)F)c(Cl)c2)NC(=O)CN(C)C(=O)[C@@H]1Cc1ccc(C(F)(F)F)cc1 [PP0176] ([NMeL]I[Sar][Sar][NPrPhe(4-CF3)][Sar][hPhe(3-Cl-4-CF3)]P[Ac5c][NMeGly(cPent)][NMeD]-{Piperidide(4-Me)}; lactam N-11) | 17.7 |  |  | B (a compound having 3 or more and less than 10 is denoted as B) | C (A compound having a KD ratio of 0.1 or more and less than 3 is denoted as C) |  | 
CCCN1C(=O)CN(C)C(=O)[C@@H]2CCN2C(=O)[C@H]([C@@H](C)CC)NC(=O)[C@H](CC(C)C)N(C)C(=O)C[C@@H](C(=O)N2CCOCC2)N(C)C(=O)[C@H](C2CCCC2)N(C)C(=O)C2(CCCC2)NC(=O)CN(C)C(=O)[C@H](CCc2ccc(C(F)(F)F)c(Cl)c2)NC(=O)CN(C)C(=O)[C@@H]1Cc1ccc(C(F)(F)F)cc1 [PP0314] ([NMeL]I[Aze][Sar][NPrPhe(4-CF3)][Sar][hPhe(3-Cl-4-CF3)][Sar][Ac5c][NMeGly(cPent)][NMeD]-Morpholide; lactam N-11) | 58.1 |  |  | B (a compound having 3 or more and less than 10 is denoted as B) | C (A compound having a KD ratio of 0.1 or more and less than 3 is denoted as C) |  | 
C#CC[C@H]1C(=O)N[C@@H]([C@@H](C)CC)C(=O)N(C)CC(=O)N(C)[C@H]2C/C=C\CCN(C2=O)[C@@H](Cc2ccc(C(F)(F)F)cc2)C(=O)N(C)CC(=O)N[C@@H](CCc2cc(F)c(C(F)(F)F)c(F)c2)C(=O)N2C[C@H](OCC)C[C@H]2C(=O)NC2(CCC2)C(=O)N(C)[C@@H](C2CCCC2)C(=O)N(C)[C@H](C(=O)N(C)CCC)CC(=O)N1C [PP1703] | 7.2 |  |  |  |  | A (a compound having 10 or more and less than 20 is denoted as A) | A (a compound having 10 or more and less than 20 is denoted as A)
CCCOC[C@H]1C(=O)N[C@@H]([C@@H](C)CC)C(=O)N(C)CC(=O)N(C)[C@H]2C/C=C\CCN(C2=O)[C@@H](Cc2ccc(C(F)(F)F)cc2)C(=O)N(C)CC(=O)N[C@@H](CCc2cc(F)c(C(F)(F)F)c(F)c2)C(=O)N2C[C@H](OCC)C[C@H]2C(=O)NC2(CCC2)C(=O)N(C)[C@@H](C2CCCC2)C(=O)N(C)[C@H](C(=O)N(C)CCC)CC(=O)N1C [PP1668] | 5.3 |  |  |  |  | A (a compound having 10 or more and less than 20 is denoted as A) | A (a compound having 10 or more and less than 20 is denoted as A)
CCCN(C)C(=O)[C@@H]1CC(=O)N(C)[C@@H](CC2CC2)C(=O)N[C@@H]([C@@H](C)CC)C(=O)N(C)CC(=O)N(C)[C@H]2C/C=C\CCN(C2=O)[C@@H](Cc2ccc(C(F)(F)F)cc2)C(=O)N(C)CC(=O)N[C@@H](CCc2cc(F)c(C(F)(F)F)c(F)c2)C(=O)N2C[C@H](F)C[C@H]2C(=O)NC2(CC(C)(C)C2)C(=O)N(C)[C@@H](C2CCCC2)C(=O)N1C [PP1665] | 3.1 |  |  |  |  | AA (a compound having 20 or more is denoted as AA) | A (a compound having 10 or more and less than 20 is denoted as A)
CC[C@H](C)[C@@H]1NC(=O)[C@H](C)N(C)C(=O)C[C@@H](C(=O)N2CCOCC2)N(C)C(=O)[C@H](C2CCCC2)N(C)C(=O)C2(CCCC2)NC(=O)[C@@H]2CCCN2C(=O)[C@H](CCc2ccc(C(F)(F)F)c(Cl)c2)NC(=O)CN(C)C(=O)[C@H](Cc2ccc(C)cc2)N(CC)C(=O)[C@@H]2CCN2C(=O)[C@H](C)N(C)C1=O [PP0007] ([NMeA]I[NMeA][Aze][NEtPhe(4-Me)][Sar][hPhe(3-Cl-4-CF3)]P[Ac5c][NMeGly(cPent)][NMeD]-Morpholide; lactam N-11) | 4.8 |  |  | C (A compound having a KD ratio of 0.1 or more and less than 3 is denoted as C) | C (A compound having a KD ratio of 0.1 or more and less than 3 is denoted as C) |  | 

Continued, in another order:

IC50 [2] [nM] | Compound | NRAS /KRAS [1, 3] | HRAS /KRAS (HRAS wild-type protein; [4]) | NRAS /KRAS [1, 5] | HRAS /KRAS (HRAS wild-type protein; [6]) | NRAS /KRAS [1, 7] | HRAS /KRAS (HRAS wild-type protein; [8])
12.3 | CCC[C@H]1C(=O)N[C@@H]([C@@H](C)CC)C(=O)N(C)CC(=O)N(C)[C@H]2C/C=C\CCN(C2=O)[C@@H](Cc2ccc(C(F)(F)F)cc2)C(=O)N(C)CC(=O)N[C@@H](CCc2cc(F)c(C(F)(F)F)c(F)c2)C(=O)N(C)[C@@H](COC)C(=O)NC2(CC(C)(C)C2)C(=O)N(C)[C@@H](C2CCCC2)C(=O)N(C)[C@H](C(=O)N(C)C)CC(=O)N1C [PP1936] | AA (a compound having 20 or more is denoted as AA) | A (a compound having 10 or more and less than 20 is denoted as A) |  |  |  | 
40.4 | CCCN1C(=O)CN(C)C(=O)CN(C)C(=O)[C@H]([C@@H](C)CC)NC(=O)[C@H](CC(C)C)N(C)C(=O)C[C@@H](C(=O)N2CCOCC2)N(C)C(=O)[C@H](C2CCCC2)N(C)C(=O)[C@](C)(CC)NC(=O)[C@@H]2CCCN2C(=O)[C@H](CCc2cc(F)c(C(F)(F)F)c(F)c2)NC(=O)CN(C)C(=O)[C@@H]1Cc1ccc(C(F)(F)F)cc1 [PP0754] ([NMeL]I[Sar][Sar][NPrPhe(4-CF3)][Sar][hPhe(3,5-F2-4-CF3)]P[Iva][NMeGly(cPent)][NMeD]-Morpholide; lactam N-11) | B (a compound having 3 or more and less than 10 is denoted as B) | C (A compound having a KD ratio of 0.1 or more and less than 3 is denoted as C) |  |  |  | 
122 | CCCN1C(=O)CN(C)C(=O)[C@@H]2CCN2C(=O)[C@H]([C@@H](C)CC)NC(=O)[C@H](CC(C)C)N(C)C(=O)C[C@@H](C(=O)N2CCOCC2)N(C)C(=O)[C@H](C2CCCC2)N(C)C(=O)C2(CC(F)(F)C2)NC(=O)[C@@H]2CCCN2C(=O)[C@H](CCc2cc(F)c(C(F)(F)F)c(F)c2)NC(=O)CN(C)C(=O)[C@@H]1Cc1ccc(C(F)(F)F)cc1 [PP0783] ([NMeL]I[Aze][Sar][NPrPhe(4-CF3)][Sar][hPhe(3,5-F2-4-CF3)]P[Ac4c(3,3-F2)][NMeGly(cPent)][NMeD]-Morpholide; lactam N-11) |  |  | B (a compound having 3 or more and less than 10 is denoted as B) | B (a compound having 3 or more and less than 10 is denoted as B) |  | 
17.1 | CC[C@H](C)[C@@H]1NC(=O)[C@H](CC(C)C)N(C)C(=O)C[C@@H](C(=O)N2CCOCC2)N(C)C(=O)[C@H](C2CCCC2)N(C)C(=O)C2(CCCC2)NC(=O)[C@@H]2CCCN2C(=O)[C@H](CCc2ccc(C(F)(F)F)c(Cl)c2)NC(=O)CN(C)C(=O)[C@H](Cc2ccccc2)N(CC)C(=O)CN(C)C(=O)CN(C)C1=O [PP0210] ([NMeL]I[Sar][Sar][NEtPhe][Sar][hPhe(3-Cl-4-CF3)]P[Ac5c][NMeGly(cPent)][NMeD]-Morpholide; lactam N-11) |  |  | C (A compound having a KD ratio of 0.1 or more and less than 3 is denoted as C) | C (A compound having a KD ratio of 0.1 or more and less than 3 is denoted as C) |  | 
6.9 | CCOC[C@H]1C(=O)N[C@@H]([C@@H](C)CC)C(=O)N(C)CC(=O)N(C)[C@H]2C/C=C\CCN(C2=O)[C@@H](Cc2ccc(C(F)(F)F)cc2)C(=O)N(C)CC(=O)N[C@@H](CCc2ccc(C(F)(F)F)c(OC)c2)C(=O)N2C[C@H](OCC)C[C@H]2C(=O)NC2(CC(C)(C)C2)C(=O)N(C)[C@@H](C2CCCC2)C(=O)N(C)[C@H](C(=O)N(C)CC)CC(=O)N1C [PP2014] | A (a compound having 10 or more and less than 20 is denoted as A) | A (a compound having 10 or more and less than 20 is denoted as A) |  |  |  | 
182 | CCO[C@@H]1C[C@H]2C(=O)NC3(CCC3)C(=O)N(C)[C@@H](C3CCCC3)C(=O)N(C)[C@H](C(=O)N3CCOCC3)CC(=O)N(C)[C@@H](Cc3ccc(F)c(F)c3)C(=O)N[C@@H]([C@@H](C)CC)C(=O)N(C)CC(=O)N(C)[C@H]3CCCCCN(C3=O)[C@@H](Cc3ccc(C(F)(F)F)cc3)C(=O)N(C)CC(=O)N[C@@H](CCc3cc(F)c(C(F)(F)F)c(F)c3)C(=O)N2C1 [PP0928] |  |  | A (a compound having 10 or more and less than 20 is denoted as A) | B (a compound having 3 or more and less than 10 is denoted as B) |  | 
12.6 | CCO[C@@H]1C[C@H]2C(=O)NC3(CCC3)C(=O)N(C)[C@@H](C3CCCC3)C(=O)N(C)[C@H](C(=O)N3CCCC3)CC(=O)N(C)[C@H]3CCCCC/C=C/c4ccc(cc4)C[C@@H](C(=O)N(C)CC(=O)N[C@@H](CCc4ccc(Cl)c(Cl)c4)C(=O)N2C1)N1CC/C=C\C[C@@H](C1=O)N(C)C(=O)CN(C)C(=O)[C@H]([C@@H](C)CC)NC3=O [PP3049] |  |  | AA (a compound having 20 or more is denoted as AA) | A (a compound having 10 or more and less than 20 is denoted as A) |  | 
24.3 | CCO[C@@H]1C[C@H]2C(=O)NC3(CC(C)(C)C3)C(=O)N(C)[C@@H](C(CC)CC)C(=O)N(C)[C@H](C(=O)N3CCCC3)CC(=O)N(C)[C@@H](COC)C(=O)N[C@@H]([C@@H](C)CC)C(=O)N(C)CC(=O)N(C)[C@H]3C/C=C\CCN(C3=O)[C@@H](Cc3ccc(C(F)(F)F)cc3)C(=O)N(C)CC(=O)N[C@@H](CCc3cc(F)c(C(F)(F)F)c(F)c3)C(=O)N2C1 [PP2123] | A (a compound having 10 or more and less than 20 is denoted as A) | A (a compound having 10 or more and less than 20 is denoted as A) |  |  |  | 
